Results on 1 compound are retold here after patent US11584726B2 (Beijing Foreland Pharma Co., Ltd., priority 2017, dated 2023).

Data set [1] concerns CD4 on peripheral blood cell. Nature of the data set: Effects on the expression of CD4 on peripheral blood cell in mice (flow cytometry). Type of data set: in vivo, mice (C57 BL/6). The conditions noted are these: intragastric, once a day for four days, mouse peripheral blood. How it is done: (§1) FITC Rat Anti-Mouse CD8a: BD, Cat. #553030.
(§2) PE Rat Anti-Mouse CD4: BD, Cat. #557308.
(§3) APC Rat Anti-Mouse CD19: BD, Cat. #561738.
(§4) The compounds used in the test were prepared by the chemical department of Beijing Forelandpharma Co. Ltd.
(§5) Routs of administration: intragastric administration, once a day, and continuous administration for four days.
(§6) After the administration, supraorbital venous blood was collected from the mouse, added to an EP tube (1.5 ml) containing an anticoagulant, and kept on the ice. The resulting mixture was transferred to a test tube, centrifuged at 4° C. and 1200 rpm/min for 5 min, removed with the supernatant liquid, added with a lysate, processed with cell lysis on the ice for 5 min, then pre-dyed, added with diluted antibody, and incubated away from light for 30 min. After the incubation, the resulting mixture was washed, removed with the supernatant liquid, added with stationary liquid, and kept in a refrigerator at 4° C. away from light for the test of flow cytometry.
(In general: In flow cytometry, cells or beads pass a laser one at a time.)

Data set [2] concerns CD8 on peripheral blood cell. The experiment in a line: Effects on the expression of CD8 on peripheral blood cell in mice (flow cytometry). Type of data set: in vivo, mice (C57 BL/6). The conditions noted are these: intragastric, once a day for four days, mouse peripheral blood. How it is done:
as §1, §2, §3, §4, §5, §6

Data set [3] has as its system CD19 on peripheral blood cell. The experiment in a line: Effects on the expression of CD19 on peripheral blood cell in mice (flow cytometry). Type of data set: in vivo, mice (C57 BL/6). The note with it: intragastric, once a day for four days, mouse peripheral blood. How it is done:
as §1, §2, §3, §4, §5, §6

Data set [4] in a line: Stability observation on the isolated solid. Format: physicochemical. The conditions noted are these: white solid; stored at low temperature under the protection of nitrogen. Here is the method: 0.426 g (0.727 mmol) of intermediate 80 was dissolved in 16 ml of methanol, added with 0.01 ml of concentrated hydrochloric acid, purged with nitrogen to remove air, followed by the addition of 0.09 g of palladium 10% on carbon, purged with hydrogen, and reacted overnight at 95° C. The reaction was monitored by TLC (DCM:MeOH=10:1). After the reaction was completed, the resulting mixture was filtered, and the filter cake was washed with hot methanol. The filtrate was concentrated by rotary evaporation, added with 1% sodium hydrate solution to adjust pH to 9-10. […] Yield: 8.5%. LC-MS: 406 [M+1]^+, tR=1.328 min. A corresponding hydrogenchloride salt was obtained by mixing the solid with a solution of hydrogen chloride in methanol under stirring.

Turning to `N[C@@]1(CO)CCc2ccc(-c3nnc(-c4ccc(O)c(C(F)(F)F)c4)o3)cc2C1` [Example 10, (S)-4-(5-(7-amino-7-(hydroxymethyl)-5,6,7,8-tetrahydronaphthalen-2-yl)-1,3,4-oxadiazol-2-yl)-2-(trifluoromethyl)phenol], the “CD4 (%)” value in data set [1] (1 mg/kg) stood at 31.1%; in data set [1] (5 mg/kg), 27.7%. For the same compound, the figures for the “CD8 (%)” value in data set [2] (1 mg/kg) and in data set [2] (5 mg/kg) were 15.3% and 14.0%, respectively. For the same compound, the “CD19 (%)” value in data set [3] (1 mg/kg) stood at 44.3%; in data set [3] (5 mg/kg), 35.7%. Also, the “stability of the solid” value in data set [4] was “prone to oxidative degradation”.
